Values quoted from earlier work, collected in patent US12115179B2, “Pharmaceutical composition, methods for treating and uses thereof” (Boehringer Ingelheim International GmbH, priority 2009, dated 2024).

Conditions: metformin on its own, in the diabetic

CN(C)C(=N)N=C(N)N [Met, metformin]
average improvement in the HbA1c value: 1.0-1.5%
